Data published in US20240398894A1, “ANGIOGENIC CONTROL, PREFERABLY COMBINED WITH GLYCAEMIC CONTROL” (BIOTEMPT B.V., priority 2021, published 2024).
Blank lines part the entries; values can stand above or below the compound they belong to. Where a SMILES comes first, the peptide text is derived from it.

Tests used:
LPS-activity = details: cited from earlier work
human CD4+ cells = assay: Human CD4+ lymphocyte-migration assay (modified Boyden chamber); type: cell-based
Experimental: A: Synthetic human-C-peptide (1-31, having ERC-binding-motif LGGGPG) was tested in human CD4+ lymphocyte-migration assay together with negative and treatment controls: no C-peptide added, scrambled version of human C-peptide (1-31, lacking any xGxxPx motif) and pig-C-peptide (1-29, ˜74% similarity to human C-peptide but lacking any xGxxPx motif; alignment with human C-peptide shown herewith).
Freshly isolated human CD4+ cells were incubated for 3 h with the indicated C-peptide variants (10 nM) to assess the effect on cell migration in a modified Boyden chamber. Results are expressed as the mean±SEM, ****P<0.001 treatments vs. control.
B: Freshly isolated human CD4 cells were preincubated for 3 h with V14 peptide (10 μM) or lactose (10 mM) and then stimulated with C-peptide (1-31) for 3 H as indicated in (A). Results are expressed as the mean±SEM. *P<0.05, ****P<0.001 treatments vs. control, […] ###P<0.001 treatments vs. human C-peptide (1-31).

TNF-α and IL-6 = details: rat, hemorrhagic shock; cited from earlier work
[1] = test system: human pulmonary microvascular endothelial cells; assay: Microvascular angiogenesis (sprouting) assay in Matrigel; type: cell-based; details: for angiogenic activities (total tube length): Matrigel, increasing concentrations, t=24 h, data not shown; for angiogenic (core) activity in sprouting assay: human vascular endothelial cells, as demonstrated herein
Experimental: Human pulmonary microvascular endothelial cells (Hpmec, HUVE, or other vascular EC, may also be used) were cultured in EBM-2 medium (Lonza, CC-3156) supplemented with 10% FBS and all components present in the bullet kit (Lonza, CC-4147) containing human recombinant FGF-B, human recombinant VEGF, human recombinant R3-IGF-1, ascorbic acid, human recombinant EGF and GA-1000 (Gentamicin sulfate-Amphotericin). 24 hours prior to the assay Hpmec were starved in EBM-2 medium containing 0.5% FBS instead of 10% FBS. For introduction in the angiogenesis assay, endothelial cells were washed 2 times with warm PBS, trypsinized and resuspended in serum free EBM-2 medium. For the angiogenesis assay, Matrigel (Fisher Scientific, Landsmeer, The Netherlands #11523550) was diluted 1:1 in serum-free EBM-2 medium and plated in a 96-well plate (50 μL). After polymerization, the cells were combined with the experimental peptide fragments and added on top of the Matrigel (100 μL). Pictures of the microvascular network were taken after 24 hours of incubation with a 4× objective and analysed using the plug-in angiogenesis analyser in ImageJ.

NOD mice = details: cited from earlier work
[2] = Distribution and elimination of intravenously injected [14C]-AQGV from mice; type: in vivo, male CD-1 mice
Experimental: The present study, which was conducted by TNO Biosciences, Utrechtseweg, Netherlands, was designed to provide data on the distribution and metabolism of [^14C]-AQGV (Ala-Gln-[1-^14C]Gly-Val) in male CD-1 mice following a single intravenous dose of 50 mg/kg. To this end, mice were sacrificed at 10, 30 and 60 minutes, and 6 and 24 hours after administration of radiolabeled AQGV, counts in various tissues were determined, and the radioactivity present in the urine and plasma were analyzed by HPLC.

[3] = test system: human umbilical vein endothelial cells; details: dose-dependent; cited from earlier work
[4] = test system: streptozotocin-induced diabetic mice; details: supplement using osmotic pumps; cited from earlier work
mTOR = details: piglets; cited from earlier work
[5] = after 10 minutes, 50 mg/kg i.v.

Compound: VLPALA
LPS-activity in vitro (LPS-activity): significantly inhibited

Compound: OC[C@H]1O[C@@H](O[C@H]2[C@H](O)[C@@H](O)C(O)O[C@@H]2CO)[C@H](O)[C@@H](O)[C@H]1O (stereo partly drawn) [lactose]
effect on CD4+-migratory effects of C-peptide (human CD4+ cells; preincubated 3 h with V14 peptide (10 μM) or lactose (10 mM), then C-peptide (1-31)): blunted

Compound: VLAALP
LPS-activity in vitro (LPS-activity): significantly inhibited

Compound: AQGV
LPS-activity in vitro (LPS-activity): significantly inhibited
systemic release of IL-6 (TNF-α and IL-6): significantly (p<0.001) prevented
systemic release of TNF-α (TNF-α and IL-6): significantly (p<0.001) prevented

Compound: VGVAPG
angiogenic activities (total tube length) [1]: significantly induced angiogenic activities
angiogenic (core) activity in sprouting assay [1]: core-angiogenic activities have been demonstrated

Compound: PGAYPG
angiogenic activities (total tube length) [1]: significantly induced angiogenic activities
angiogenic (core) activity in sprouting assay [1]: have angiogenic core activities

Compound: LQGV
T1D-onset (NOD mice): significantly (p<0.0001) delay
LPS-activity in vitro (LPS-activity): significantly inhibited
systemic release of IL-6 (TNF-α and IL-6): significantly (p<0.001) prevented
systemic release of TNF-α (TNF-α and IL-6): significantly (p<0.001) prevented

average total recovery of radioactivity ([2]; 10 minutes after dose administration): 83.2%
average total recovery of radioactivity ([2]; 30 minutes after dose administration): 70.5%
average total recovery of radioactivity ([2]; 60 minutes after dose administration): 62.9%
average total recovery of radioactivity ([2]; 6 hours after dose administration): 52.6%
average total recovery of radioactivity ([2]; 24 hours after dose administration): 50.8%
administered radioactivity excreted in feces ([2]; after 24 hours): 2.6%
administered radioactivity excreted in urine ([2]; after 24 hours): 10.2%
removal from the blood ([2]; after intravenous injections): rapidly removed
radioactivity in the blood, amount present if all of the counts were in intact peptide ([2]; blood, 10 minutes after single intravenous dose of 50 mg/kg): 17.2 µg/g
concentration of "peptide" (radioactivity) in kidneys [2, 5]: 362 µg/g
concentration of "peptide" (radioactivity) in kidneys ([2]; after 24 hours, 50 mg/kg i.v.): 61.9 µg/g
concentration of "peptide" (radioactivity) in liver [2, 5]: 105 µg/g
concentration of "peptide" (radioactivity) in liver ([2]; after 24 hours, 50 mg/kg i.v.): 37.6 µg/g
concentration of "peptide" (radioactivity) in lung ([2]; lung, after 10 minutes, 50 mg/kg i.v.): 75.2 µg/g
time to full hydrolysis of the peptide after administration ([2]; mice): 15 min
parent compound in plasma ([2]; plasma after 10 minutes, HPLC, 50 mg/kg i.v.): No parent compound could be detected
concentration of "peptide" (radioactivity) in skin ([2]; skin, after 24 hours, 50 mg/kg i.v.): 37.5 µg/g
concentration of "peptide" (radioactivity) in spleen [2, 5]: 74.7 µg/g
concentration of "peptide" (radioactivity) in spleen ([2]; after 24 hours, 50 mg/kg i.v.): 39.3 µg/g
concentration of "peptide" (radioactivity) in testis ([2]; testis, after 10 minutes, 50 mg/kg i.v.): 85.7 µg/g
concentration of "peptide" (radioactivity) in thymus ([2]; thymus, after 24 hours, 50 mg/kg i.v.): 43.1 µg/g
administered radioactivity exhaled as volatiles, most likely 14C-CO2 ([2]; up to 24 hours): About 50%
parent compound in urine ([2]; urine, HPLC, 50 mg/kg i.v.): No parent compound was detected
Compound: Ala-Gln-[1-^14C]Gly-Val [[^14C]-AQGV]

Compound: human C-peptide
effect on CD4+ lymphocyte migration (human CD4+ cells; 10 nM, 3 h incubation): upregulating effect
concentration of maximal effect on endothelial cell migration and tube formation [3]: 0.5 nM
rate of skin wound closure [4]: significantly increased

Compound: LAGV
LPS-activity in vitro (LPS-activity): significantly inhibited
systemic release of IL-6 (TNF-α and IL-6): significantly (p<0.001) prevented
systemic release of TNF-α (TNF-α and IL-6): significantly (p<0.001) prevented

Compound: LGGGPG
angiogenic activities (total tube length) [1]: significantly induced angiogenic activities

Compound: VLPAAP
LPS-activity in vitro (LPS-activity): significantly inhibited

Compound: C[C@H](N)C(=O)N[C@@H](CCC(N)=O)C(=O)O [AQ, Alanyl-glutamine] (H-Ala-Gln-OH)
autophagy-inhibition (mTOR): demonstrated

Compound: VGVAPGVGVAPGVGVAPG [18-meric peptide derived from human elastin]
angiogenic (core) activity in sprouting assay [1]: core-angiogenic activities have been demonstrated

Compound: VAPALP
LPS-activity in vitro (LPS-activity): significantly inhibited

Compound: LQAV
LPS-activity in vitro (LPS-activity): significantly inhibited

Compound: GAYPGAPGAYPGAPAPGV [18-meric peptide derived from the human N-terminal fragment of galectin-3]
angiogenic (core) activity in sprouting assay [1]: have angiogenic core activities

Compound: ALPALP
LPS-activity in vitro (LPS-activity): significantly inhibited

Compound: VLPALP
T1D-onset (NOD mice): significantly (p<0.0001) delay
LPS-activity in vitro (LPS-activity): significantly inhibited

Compound: LOGA
LPS-activity in vitro (LPS-activity): significantly inhibited
